Assay results as given in patent US20230233533A1, “COMPOSITIONS, METHODS OF TREATING AND PREVENTING FUNGAL INFECTIONS, AND METHODS OF INHIBITING PRP8 INTEIN EXPRESSION” (Health Research, Inc., priority 2020, published 2023).
Several values for one entry are separate records, joined by “and”; a condition that tells them apart may be missing. Equal entries are not always repeated.

What was measured:
[1] = in vitro; format: cell-based, human; settings: human, CC50 A549
Procedure, shortened: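 A549 cells (5×10^3 per well) were exposed to compounds at 37 °C for 48 h, and viability was read by MTT assay; N=3.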

[2] = system: C. neoformans (H99); experiment: In vivo preliminary efficacy study, intranasal infection of BALB/c mice; set-up: species or system Cryptococcus neoformans; settings: 75 mg/kg oral gavage once daily
Protocol: FIG. 7 illustrates efficacy of 6G318S in mouse models. BALB/c mice (5-6 wk old, male and female were dosed orally by either vehicle control (VC) or 6G318S-75 mg/kg once daily for 5 days. On day 5, all mice were euthanized, lungs were collected, weighed and homogenized in RPMI-1640-MOPS media. Serial 10-fold dilution of the homogenate is made and a volume of 100 ul is plated on to Sabouraud Dextrose-agar plates with antibiotics. Colonies were counted on day 3 and normalized to weight of the lung.
Treatment was given for 6 days. On day 6 few mice were euthanized to check the […] in lungs.

[3] = molecular target: C1A/H62A/D95A/H169A (AAAA) Prp8 intein mutant; experiment: Surface plasmon resonance (SPR), AAAA mutant; format: binding, Cryptococcus gattii
Protocol: The Prp8 intein and mutants were immobilized onto a ProteOn™ GLH sensor chip (2,500-7,000 RU) (Bio-Rad). A 3-fold dilution series of compounds was injected as the analytes. A blank surface blocked by ethanolamine was used as the control surface. The experiment was carried out at a flow rate of 100 μl/min using a PBSTD buffer containing 1×PBS, 0.005% surfactant P20, and 5% DMSO. Association (ka) and dissociation (kd) rates, as well as the dissociation constant (KD), were obtained by global fitting of the SPR data from multiple concentrations to a simple 1:1 Langmuir binding model, using the ProteOn Manager software suite (Bio-Rad).

[4] = molecular target: T1, papain (Carica papaya, UniProt P00784); experiment: Papain protease inhibition (Abz FRET substrate); format: biochemical; settings: compound at 400 μM
T1 construct: purchased Sigma-Aldrich
T1 sequence (P00784 134-345): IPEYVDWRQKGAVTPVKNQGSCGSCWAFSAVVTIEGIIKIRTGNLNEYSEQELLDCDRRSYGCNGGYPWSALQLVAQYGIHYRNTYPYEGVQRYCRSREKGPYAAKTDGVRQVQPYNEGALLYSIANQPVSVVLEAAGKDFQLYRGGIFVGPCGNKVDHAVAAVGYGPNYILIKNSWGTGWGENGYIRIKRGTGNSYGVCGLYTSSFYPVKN
Protocol: (§1) Trypsin and papain protease inhibition—An Abz FRET substrate (Abz-RRRRSAG-nTyr) developed previously (Li et al., “Existing Drugs as Broad-Spectrum and Potent Inhibitors for Zika Virus by Targeting NS2B-NS3 Interaction,” Cell Research 27(8):1046-1064 (2017), which is hereby incorporated by reference in its entirety) was used as the substrate for inhibition of trypsin and papain proteases. In black and clear-bottom 96-well plates, 1 μg trypsin (Sigma-Aldrich) was incubated with DMF or compounds at 400 μM at 25° C. for 30 min in a 70 μl reaction buffer containing 20 mM Tris, pH 8.0, 100 mM NaCl, 5% Glycerol, and 0.05% CHAPS. For papain, 1 μg Papain (Sigma-Aldrich) was incubated with compounds at 400 μM at 25° C. for 30 min in a 70 μl reaction buffer composed of 1.1 mM EDTA, 0.067 mM β-mercaptoethanol, 5.5 mM cysteine. […]

[5] = system: trypsin; experiment: Trypsin protease inhibition (Abz FRET substrate); format: biochemical; settings: compound at 400 μM
Protocol: as §1

[6] = system: Prp8 intein; experiment: Western blot of Prp8 intein splicing in C. neoformans H99; format: cell-based; settings: 0.32 μg/ml, 3 h post-treatment
Protocol: Western blot (WB)—Fresh colonies of Cryptococcus neoformans were grown in yeast extract peptone dextrose (YPD) broth in an environmental shaker (250 rpm) overnight at 30° C. The fungal cells (5 ml) were diluted in 125 ml YPD broth and grown for 1.5 h to a final cell density of 0.2 at OD530. The cells were distributed to test tubes (3 ml/tube). Then 3 ml of YPD medium containing DMF or 2-fold diluted compounds was added to the cells. The mixtures were incubated at 30° C. in a shaker at 250 RPM for up to 18 h. Samples were spun down and pellets were frozen for WB analysis.
Cryptococcal cells treated with DMF or compounds were washed twice with PBS buffer. Cells were spun down and supernatant was removed. For a 6-ml cell pellet, 30 μl of complete protease inhibitor cocktail in PBS was added to the cells, followed by addition of 400 μl lysis buffer (50 mM Tris, pH 8.0, 500 mM NaCl, 10% glycerol) and 500 μl glass beads. The fungal cells were lysed by rigorous beating for 2 min 3 times. The cell lysate was spun down. Supernatant was mixed with SDS-PAGE loading buffer (1:1). The mixtures were boiled at 95° C. for 10 min, followed by centrifugation at 15,000 rpm for 10 min. Samples were analyzed using 12% SDS-PAGE. The separated samples were blotted to a PVDF membrane and subjected to WB analysis using an antibody against the Prp8 intein. […]

[7] = system: C. neoformans H99 strain transformed with empty vector, WT Prp8 or AAAA mutant; experiment: Resistance study, MIC in H99 overexpressing Prp8 intein; format: cell-based, Cryptococcus neoformans
Protocol: For resistance studies, C. neoformans H99 strain transformed with an empty pXL1-PTEF1 vector, the Prp8-pXL1-PTEF1 (WT Prp8) construct, or the AAAA mutant were used, as described. Li et al., “Cisplatin Protects Mice From Challenge of Cryptococcus Neoformans by Targeting the Prp8 Intein,” Emerging Microbes & Infections 8(1):895-908 (2019), which is hereby incorporated by reference in its entirety. MICs for selected compounds were determined for these transformed cells as described above.

O=C(Nc1ccc(F)cc1)c1nnsc1S(=O)(=O)c1ccc(Cl)cc1 [6G-318S, 5-[(4-chlorophenyl)sulfonyl]-N-(4-fluorophenyl)-1,2,3-thiadiazole-4-carboxamide]
CC50 at 48 h [1]: 13.9 µg/mL and ~35 µM
fungal cells in lungs versus vehicle controls [2]: indication of reduction of fungal cells in lungs
KD AAAA [3]: completely lost binding affinity
inhibition of papain protease activity [4]: neither 6G-318S, 6G-319S, nor cisplatin significantly inhibited
inhibition of trypsin protease activity [5]: neither 6G-318S, 6G-319S, nor cisplatin significantly inhibited
inhibition of Prp8 splicing in vivo in C. neoformans [6]: completely inhibited Prp8 splicing
MIC with empty vector or AAAA mutant Prp8 intein-transformed H99 cells [7]: identical MIC values
increase of MIC in H99 transformed with WT Prp8 intein ([7]; compared to H99 with empty vector or AAAA mutant): 4 fold
